Data reported in PubChem BioAssay AID328 (DTP/NCI, 2004).
Several values for one entry are separate records, joined by “and”; a condition that tells them apart may be missing. Equal entries are not always repeated. Toxic doses and inconclusive results are not listed.

System: BDF1 mice, P388 leukemia ip, median survival T/C
Experiment: NCI In Vivo Anticancer Drug Screen. Data for tumor model P388 Leukemia (intraperitoneal) in B6D2F1 (BDF1) mice
Conditions: endpoint: median survival time, higher = longer survival
Method in brief: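 Each value expresses how treatment altered survival: treated-mouse outcome over vehicle-mouse outcome, both groups bearing the transplanted tumour.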

[1] = dose: 12.5 mg/kg/injection, schedule: Q04DX003 (ip), vehicle: saline with Tween-80
[2] = dose: 25.0 mg/kg/injection, schedule: Q04DX003 (ip), vehicle: saline with Tween-80
[3] = dose: 50.0 mg/kg/injection, schedule: Q04DX003 (ip), vehicle: saline with Tween-80
[4] = dose: 100.0 mg/kg/injection, schedule: Q01DX001 (ip), vehicle: saline
[5] = dose: 200.0 mg/kg/injection, schedule: Q01DX001 (ip), vehicle: saline
[6] = dose: 25.0 mg/kg/injection, schedule: Q01DX009 (ip), vehicle: Klucel (hydroxypropylcellulose) (HPC)
[7] = dose: 50.0 mg/kg/injection, schedule: Q01DX009 (ip), vehicle: Klucel (hydroxypropylcellulose) (HPC)
[8] = dose: 50.0 mg/kg/injection, schedule: Q04DX003 (ip), vehicle: Klucel (hydroxypropylcellulose) (HPC)
[9] = dose: 100.0 mg/kg/injection, schedule: Q01DX009 (ip), vehicle: Klucel (hydroxypropylcellulose) (HPC)
[10] = dose: 100.0 mg/kg/injection, schedule: Q04DX003 (ip), vehicle: Klucel (hydroxypropylcellulose) (HPC)
[11] = dose: 200.0 mg/kg/injection, schedule: Q04DX003 (ip), vehicle: Klucel (hydroxypropylcellulose) (HPC)
[12] = dose: 100.0 mg/kg/injection, schedule: Q04DX003 (ip), vehicle: saline with Tween-80
[13] = dose: 200.0 mg/kg/injection, schedule: Q04DX003 (ip), vehicle: saline with Tween-80
[14] = dose: 400.0 mg/kg/injection, schedule: Q04DX003 (ip), vehicle: saline with Tween-80
[15] = dose: 50.0 mg/kg/injection, schedule: Q01DX009 (ip), vehicle: saline with Tween-80
[16] = dose: 100.0 mg/kg/injection, schedule: Q01DX009 (ip), vehicle: saline with Tween-80
[17] = dose: 200.0 mg/kg/injection, schedule: Q01DX009 (ip), vehicle: saline with Tween-80

CCN(CC)Cc1nc2nc(Cl)c(Cl)nc2[nH]1
T/C (dose: 5.0 mg/kg/injection, schedule: Q01DX009 (ip), vehicle: saline with Tween-80): 112 % of control
T/C (dose: 10.0 mg/kg/injection, schedule: Q01DX009 (ip), vehicle: saline with Tween-80): 114 % of control
T/C [1]: 114 % of control
T/C (dose: 20.0 mg/kg/injection, schedule: Q01DX009 (ip), vehicle: saline with Tween-80): 98 % of control
T/C [2]: 100 % of control and 114 % of control
T/C [3]: 88 % of control and 100 % of control and 104 % of control

CCOC(=O)c1cc2c(nn3c(C)cccc23)n(CC)c1=N
T/C (dose: 6.25 mg/kg/injection, schedule: Q01DX001 (ip), vehicle: saline): 105 % of control
T/C (dose: 12.5 mg/kg/injection, schedule: Q01DX001 (ip), vehicle: saline): 122 % of control
T/C (dose: 25.0 mg/kg/injection, schedule: Q01DX001 (ip), vehicle: saline): 100 % of control

CC(=O)C(C)(c1ccccc1)N(Cc1ccccc1)C(=O)c1ccccc1 (configuration not stated)
T/C [4]: 109 % of control
T/C [5]: 109 % of control
T/C (dose: 400.0 mg/kg/injection, schedule: Q01DX001 (ip), vehicle: saline): 104 % of control

CCOC1=C(N2CC2)C(=O)C(OCC)=C(N2CC2)C1=O
T/C (dose: 0.07 mg/kg/injection, schedule: Q01DX009 (ip), vehicle: saline with Tween-80): 95 % of control
T/C (dose: 0.25 mg/kg/injection, schedule: Q01DX009 (ip), vehicle: saline): 165 % of control
T/C (dose: 0.25 mg/kg/injection, schedule: Q04DX003 (ip), vehicle: saline): 109 % of control
T/C (dose: 0.3 mg/kg/injection, schedule: Q01DX009 (ip), vehicle: saline with Tween-80): 122 % of control
T/C (dose: 0.5 mg/kg/injection, schedule: Q01DX009 (ip), vehicle: saline): 152 % of control and 190 % of control
T/C (dose: 0.5 mg/kg/injection, schedule: Q04DX003 (ip), vehicle: saline): 154 % of control
T/C (dose: 0.6 mg/kg/injection, schedule: Q01DX009 (ip), vehicle: saline with Tween-80): 153 % of control
T/C (dose: 0.63 mg/kg/injection, schedule: Q04DX003 (ip), vehicle: saline): 122 % of control
T/C (dose: 1.0 mg/kg/injection, schedule: Q01DX009 (ip), vehicle: saline): 245 % of control and 195 % of control
T/C (dose: 1.0 mg/kg/injection, schedule: Q04DX003 (ip), vehicle: saline): 200 % of control
T/C (dose: 2.0 mg/kg/injection, schedule: Q01DX009 (ip), vehicle: saline): 242 % of control and 105 % of control
T/C (dose: 2.5 mg/kg/injection, schedule: Q04DX003 (ip), vehicle: saline): 172 % of control
T/C (dose: 4.0 mg/kg/injection, schedule: Q01DX009 (ip), vehicle: saline): 114 % of control

O=C(CCl)N1CCc2ccccc21
T/C [6]: 104 % of control
T/C (dose: 25.0 mg/kg/injection, schedule: Q04DX003 (ip), vehicle: Klucel (hydroxypropylcellulose) (HPC)): 90 % of control
T/C [7]: 100 % of control
T/C [8]: 100 % of control
T/C [9]: 86 % of control
T/C [10]: 95 % of control

O=C(C=C(C(F)(F)F)C(F)(F)F)c1ccco1
T/C (dose: 6.25 mg/kg/injection, schedule: Q01DX009 (ip), vehicle: saline with Tween-80): 120 % of control
T/C (dose: 12.5 mg/kg/injection, schedule: Q01DX009 (ip), vehicle: saline with Tween-80): 120 % of control

CCNC(C)(C)C(SS(=O)(=O)O)c1cccs1 (configuration not stated)
T/C (dose: 100.0 mg/kg/injection, schedule: Q01DX009 (ip), vehicle: water): 121 % of control
T/C (dose: 100.0 mg/kg/injection, schedule: Q04DX003 (ip), vehicle: water): 102 % of control
T/C (dose: 200.0 mg/kg/injection, schedule: Q01DX009 (ip), vehicle: water): 121 % of control
T/C (dose: 200.0 mg/kg/injection, schedule: Q04DX003 (ip), vehicle: water): 111 % of control
T/C (dose: 400.0 mg/kg/injection, schedule: Q04DX003 (ip), vehicle: water): 93 % of control

CC(C)(C)/C([O-])=N/[N+](C)(C)C
T/C (dose: 50.0 mg/kg/injection, schedule: Q01DX001 (ip), vehicle: saline): 109 % of control
T/C [4]: 104 % of control
T/C [5]: 104 % of control

O=C(NCC(S)c1ccc(Cl)cc1)C(F)(F)F (configuration not stated)
T/C (dose: 6.25 mg/kg/injection, schedule: Q04DX003 (ip), vehicle: saline with Tween-80): 100 % of control
T/C [1]: 100 % of control
T/C [2]: 118 % of control

O=C(Cc1ccccc1)OCCc1ccccc1
T/C (dose: 12.5 mg/kg/injection, schedule: Q01DX009 (ip), vehicle: Klucel (hydroxypropylcellulose) (HPC)): 109 % of control
T/C [6]: 109 % of control
T/C [7]: 95 % of control
T/C [10]: 109 % of control
T/C [11]: 100 % of control
T/C (dose: 400.0 mg/kg/injection, schedule: Q04DX003 (ip), vehicle: Klucel (hydroxypropylcellulose) (HPC)): 100 % of control

O=c1cc(-c2ccccc2)[nH]c(=S)[nH]1
T/C [12]: 95 % of control
T/C [13]: 104 % of control
T/C [14]: 100 % of control

CC1CCN(SSc2nc3ccccc3s2)CC1
T/C [15]: 110 % of control
T/C [16]: 110 % of control

C#CCCOC(=O)Nc1ccccc1
T/C [9]: 100 % of control
T/C (dose: 200.0 mg/kg/injection, schedule: Q01DX009 (ip), vehicle: Klucel (hydroxypropylcellulose) (HPC)): 90 % of control
T/C (dose: 400.0 mg/kg/injection, schedule: Q01DX009 (ip), vehicle: Klucel (hydroxypropylcellulose) (HPC)): 90 % of control

COc1cccc2c1cc([N+](=O)[O-])c1c(C(=O)O)cc3c(c12)OCO3
T/C (dose: 1.25 mg/kg/injection, schedule: Q01DX010 (ip), vehicle: water): 100 % of control
T/C (dose: 2.5 mg/kg/injection, schedule: Q01DX010 (ip), vehicle: water): 118 % of control
T/C (dose: 5.0 mg/kg/injection, schedule: Q01DX010 (ip), vehicle: other): 86 % of control

CCOC(=O)Cn1nc(-c2ccc([N+](=O)[O-])o2)oc1=O
T/C [15]: 97 % of control
T/C [16]: 95 % of control
T/C [17]: 103 % of control

CC(N)C(=O)NCC(=O)NCC(=O)O (configuration not stated)
T/C (dose: 100.0 mg/kg/injection, schedule: Q01DX009 (ip), vehicle: saline): 95 % of control
T/C (dose: 100.0 mg/kg/injection, schedule: Q04DX003 (ip), vehicle: saline): 104 % of control
T/C (dose: 200.0 mg/kg/injection, schedule: Q01DX009 (ip), vehicle: saline): 104 % of control
T/C (dose: 200.0 mg/kg/injection, schedule: Q04DX003 (ip), vehicle: saline): 95 % of control
T/C (dose: 400.0 mg/kg/injection, schedule: Q01DX009 (ip), vehicle: saline): 100 % of control
T/C (dose: 400.0 mg/kg/injection, schedule: Q04DX003 (ip), vehicle: saline): 95 % of control

CC(C)(C)OC(=O)NC(CCCCNC(=O)OCc1ccccc1)C(=O)NC(CCCCNC(=O)OCc1ccccc1)C(=O)NC(CCCCNC(=O)OCc1ccccc1)C(=O)OCc1ccccc1 (configuration not stated)
T/C (dose: 50.0 mg/kg/injection, schedule: Q01DX005 (ip), vehicle: saline with Tween-80): 86 % of control
T/C (dose: 200.0 mg/kg/injection, schedule: Q01DX005 (ip), vehicle: saline with Tween-80): 90 % of control

COC(C(OC)N1CCOCC1)N1CCOCC1 (configuration not stated)
T/C [3]: 104 % of control
T/C [16]: 91 % of control
T/C [12]: 95 % of control
T/C [17]: 95 % of control
T/C [13]: 100 % of control
T/C (dose: 400.0 mg/kg/injection, schedule: Q01DX009 (ip), vehicle: saline with Tween-80): 95 % of control
T/C [14]: 100 % of control

CC(=O)Nc1ccc(NC(=O)NCCCl)cc1
T/C [8]: 110 % of control
T/C (dose: 59.0 mg/kg/injection, schedule: Q01DX009 (ip), vehicle: Klucel (hydroxypropylcellulose) (HPC)): 100 % of control
T/C (dose: 88.0 mg/kg/injection, schedule: Q01DX009 (ip), vehicle: Klucel (hydroxypropylcellulose) (HPC)): 100 % of control
T/C [10]: 110 % of control
T/C (dose: 133.0 mg/kg/injection, schedule: Q01DX009 (ip), vehicle: Klucel (hydroxypropylcellulose) (HPC)): 115 % of control
T/C (dose: 133.0 mg/kg/injection, schedule: Q04DX003 (ip), vehicle: Klucel (hydroxypropylcellulose) (HPC)): 90 % of control and 100 % of control
T/C [11]: 90 % of control and 100 % of control
T/C (dose: 300.0 mg/kg/injection, schedule: Q04DX003 (ip), vehicle: Klucel (hydroxypropylcellulose) (HPC)): 90 % of control
